Data taken from patent US20220089602A1, “COMPOUNDS THAT INDUCE FERROPTIC CELL DEATH” (The Board of Trustees of the University of Illinois, priority 2019, published 2022).
“Also recorded” adds a separate entry of the source.

Experiments:
[1] = system: ES-2 cell line; experiment: 72 hr cell viability assay (Alamar Blue), dose response IC50; type: cell-based; conditions: Homo sapiens; 72 hr, ES-2 cell line, Alamar Blue fluorescence, mean ± s.e.m., n ≥ 3
Experimental: 40 μL of media was added to each well of a 384-well tissue culture-treated plate. 3×100 nL of compound in DMSO was then pin-transferred from compound storage plates (2 mM stocks) into media-containing wells using the Platemate Plus at the UIUC High Throughput Screening Facility. A 100,000 cells/mL suspension of ES-2 cells was prepared, and 10 μL was added to each well for a final concentration of 1000 cells/well. Doxorubicin (100 μM final) was used as a positive control. Plates were sealed with gas-permeable seals and incubated at 37° C. for 72 h. After incubation, 5 μL of Alamar blue (440 μM resazurin in sterile PBS) was added and allowed to incubate for 3-4 h, until visible color change occurred. Fluorescence was measured in a Molecular Devices SpectraMax 3 (excitation=555 nm, emission=585 nm, emission cutoff=570 nm).
(§1) To a 384-well plate, 40 μL of 1.25× compound dilution or 1.25% DMSO-containing media was added (final volume of 1% DMSO). Concentrations of compounds tested were 100 μM to 100 nM. On each plate at least 3 technical replicates per compound were performed. Next, 10 μL of a 100,000 cells/mL suspension was added to each well, yielding a final concentration of 1,000 cells/well. To three wells in column 2 was added 1 μL of 10 mM doxorubicin (final concentration of 200 μM) as positive control of cell death. Plates were sealed with gas-permeable seals and incubated at 37° C. for 72 h. At that time, 5 μL of Alamar blue (440 μM resazurin in sterile PBS) was added and plates were incubated for 3-4 hours. Fluorescence was read on a Molecular Devices SpectraMax 3 (excitation=555 nm, emission=585 nm, emission cutoff=570 nm). Wells were normalized to the average of untreated wells (0% cell death). The data were plotted as compound concentration versus percent dead cells and fitted to a logistic-dose response curve using OriginPro 2015 (OriginLab, Northampton, Mass.). The data were generated in triplicate, and IC50 values are reported as the average of three separate experiments along with standard error of the mean.

[2] = system: E. coli; experiment: Antibacterial activity (MIC); type: cell-based; conditions: Escherichia coli; gram-negative (E. coli)
[3] = system: human skin fibroblast (HFF-1) cells; experiment: Cell viability IC50 in non-cancerous cells; type: cell-based
Experimental: as §1

[4] = system: non-cancerous breast (MCF10A) cells; experiment: Cell viability IC50 in non-cancerous cells; type: cell-based; conditions: Homo sapiens, MCF-10A
Experimental: as §1

[5] = system: 4T1 triple negative breast cancer cells; experiment: 4T1 subcutaneous tumor model, immunocompromised mice; type: in vivo; conditions: 50 mg/kg i.p., twice a week, five doses, SCID; listed as ferroptocide
Experimental: The protocol was approved by the IACUC at the University of Illinois at Urbana-Champaign (Protocol Number: 17192). 9-week old female Balb/C or SCID mice (Charles River) were lightly sedated with i.p. xylazine/ketamine/saline solution. Following sedation, 4T1 murine breast cancer cells suspended in chilled HBSS (100 μL of 4×10^6 cells/mL) were injected subcutaneously into the right flank of shaved and sedated mice using an insulin syringe. On day 8 after inoculation, mice were randomized with 7 mice per group for vehicle or ferroptocide treatment. Vehicle (PEG400) or ferroptocide (50 mg/kg) was administered intraperitoneally as a PEG400 solution twice a week for 5 times. Tumor measurements were performed every 3 or 4 days using a caliper and tumor volume was calculated using the equation (0.5×l×w^2). On day 23 after the 4T1 cells inoculation, mice were sacrificed. Tumors were then surgically removed, and their mass was measured.

[6] = target: T1, GPX4 (Homo sapiens, UniProt P36969); experiment: GPX4 LC-MS based activity assay (PCOOH); type: cell-based; conditions: 10 μM, 1 hr, ES-2 cells
T1 construct: endogenous in cells; host or cells: ES-2 cells
T1 sequence (P36969 whole entry): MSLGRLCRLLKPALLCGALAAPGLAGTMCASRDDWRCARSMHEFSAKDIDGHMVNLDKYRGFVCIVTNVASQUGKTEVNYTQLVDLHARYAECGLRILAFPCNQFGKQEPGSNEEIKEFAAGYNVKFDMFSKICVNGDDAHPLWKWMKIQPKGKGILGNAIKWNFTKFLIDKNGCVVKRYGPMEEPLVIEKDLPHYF
Experimental: 1 million ES-2 cells/well, 6 well plate were allowed to attach overnight and then treated with DMSO, 10 μM of each compound: ferroptocide, raptinal, and RSL3 for 1 hr. GPX4 enzymatic activity assay was performed with a GPX4 specific substrate, phosphatidylcholine hydroperoxide (PC—OOH) as described previously with minor modifications (Cell 156, 317-331, (2014)). PCOOH was prepared as reported by Roveri and coworkers (Enzymol. Vol. 233 202-212 (Academic Press, 1994)) but using soybean lipoxidase type I-B (L7395, Milipore Sigma). Cells were washed with PBS and lysed by liquid nitrogen freeze-thaw method in the assay buffer (137 mM NaCl, 2.7 mM KCl, 8 mM Na2HPO4, 2 mM KH2PO4, 1 mM EDTA, 0.1 mM DFO; pH 7.4). Cell lysates were cleared by centrifugation at 14,000 rpm for 10 min at 4° C. Bradford assay was used to determine protein concentration; 200 μg of protein or assay buffer (PCOOH control sample) was mixed with 10 μL PC—OOH in methanol, 5 mM reduced glutathione, and assay buffer to a final reaction volume of 500 μL. The reaction mixture was incubated at 37° C. for 15 mins and extracted with 250 μL chloroform:methanol (2:1) solution. The lipid extract was evaporated under nitrogen and re-dissolved in 100% methanol before injecting into the LC-MS/MS instrument for PCOOH detection.

[7] = target: T2, purified human thioredoxin (Homo sapiens, UniProt P10599); experiment: Thioredoxin activity assay, biochemical (in vitro); conditions: 30 min, versus PMX464 and PX-12
T2 construct: purchased Cayman Chemical Fluorescent Thioredoxin Activity Assay kit #20039
T2 sequence (P10599 whole entry): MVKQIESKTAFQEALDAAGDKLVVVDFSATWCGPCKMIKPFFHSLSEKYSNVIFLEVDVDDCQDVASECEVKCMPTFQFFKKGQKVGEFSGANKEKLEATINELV
Experimental: HCT 116 cells (1×10^6 cells/flask) were treated with DMSO, 10 μM ferroptocide, 50 μM PMX464, or 50 μM PX-12 for 30 min. Cells were harvested by centrifugation, resuspended in the assay buffer and lysed via sonication. For each condition, 20 μg of cell lysate was used to measure the activity thioredoxin activity following manufacturer' protocol (Cayman Chemical, Fluorescent Thioredoxin Activity Assay kit #20039) in a 96-well black-walled plate. For in vitro studies, human thioredoxin (10 μL of 0.2 μM solution) was used in addition to thioredoxin reductase (10 μL of 1.0 μM solution), 1 μl of DMSO, ferroptocide, […], or PX-12 at indicated concentrations, 5 μL of NADPH (diluted according to manufacturer's instructions), and assay buffer to a final volume of 75 μL. The plate was incubated at 37° C. for 30 min followed by immediate addition of 20 μL fluorescent substrate per each well (diluted as instructed in the assay kit). Fluorescence was monitored over 1 hr at 520 nm after excitation at 480 nm in a SpectraMax M3 (Molecular Devices) instrument at 37° C.

SMILES: C[C@@H]1CC[C@@]23C[C@H](O)C(=O)[C@@]2(O)[C@]1(C)[C@H](OC(=O)CCl)C[C@@H](C1=CCn2c(=O)n(-c4ccccc4)c(=O)n2C1)[C@@H]3C [Compound P18, ferroptocide]
- IC50 [1]: 1.6 µM
- MIC [2]: > 64 µg/mL
- IC50 [3]: 4.1 µM
- IC50 [4]: 3.1 µM
- effect on subcutaneous 4T1 tumor growth (in words) [5]: no effect
- GPX4 inhibition [6]: did not result in GPX4 inhibition; also recorded: does not cause direct GPX4 inhibition
- inhibition of purified thioredoxin, dose-response [7]: more potent thioredoxin inhibitor than PMX464 and PX-12
